Data published in US20190300851A1, “HUMAN STEM CELL DERIVED ENDOTHELIAL CELLS, ENDOTHELIAL-HEPATOCYTE CO-CULTURE SYSTEM AND USES THEREOF” (AGENCY FOR SCIENCE, TECHNOLOGY AND RESEARCH, priority 2016, published 2019).
“Also recorded” adds a separate entry of the source. Read-outs that look alike come from different tables or passages of the source.

What was measured:
[1] = tested on: IL-1β-stimulated hPSC-ECs; assay: Inflammatory marker gene expression (qPCR) in IL-1β-stimulated hPSC-ECs, monoculture; type: cell-based; conditions: for gene expression of inflammatory markers versus IL-1β stimulated levels: 10 μM, up to 72 hours, IL-1β-stimulated hPSC-ECs, monoculture
Method: (§1) After the hPSC colonies attached, they were first induced to drive early mesoderm differentiation for 36 hours, using a chemically defined media, supplemented with human recombinant FGF2 (20 ng/ml, R&D Systems, cat. no. 233-FB), LY294002 (10 μM, Sigma, cat. no. L9908), and human recombinant BMP4 (10 ng/ml, R&D Systems, cat. no. 314-BP). Lateral plate mesoderm was further induced for another 3.5 days in media supplemented with human recombinant FGF2 (20 ng/ml) and BMP4 (50 ng/ml), with media change every 2 days. On day 5, the lateral plate mesoderm population was trypsinized using TrypLE Express (Gibco, cat. no. 12604) and plated on matrigel-coated plates in the same basal media supplemented with FGF2 (4 ng/ml), SB431542 (10 μM, Sigma, cat. no. S4317) and VEGF (50 ng/ml, R&D Systems, cat. no. 293-VE) with media change every 2-3 days. On day 10, PECAM1-expressing endothelial cells were sorted using fluorescence-activated cell sorting with PECAM1 antibody (Biolegend, cat. no. 303110). The PECAM1+ cells were plated at a density of 5×10^4/cm^2 onto collagen I-coated plate in commercial media EGM-2 (Lonza, cat. no. CC-3162). For every 500 ml EGM-2 media used, the following supplements are included: human epidermal growth factor (0.5 ml); VEGF, 0.5 ml; R3-insulin growth factor-1, 0.5 ml; Ascorbic acid, 0.5 ml; Hydrocortisone, 0.2 ml; hFibroblast growth factor-beta, 2.0 ml; FBS, 10.0 ml; Gentamicin Amphotericin, 0.5 ml. hPSC-ECs were passaged using TrypLE Express when they reached more than 75% confluency. Fresh complete EGM-2 media were replaced every 2-3 days. All experiments were performed on cells up to passage 10. hPSC-ECs derived from three different cell lines, H9-ESCs (FIGS. 1-5), IMR90-iPSCs and BJ-iPSCs (FIGS. 7-8), were functionally characterized and used in inflammatory activation assays. In EC marker and functional characterization, human coronary artery ECs (HCAECs) were used as positive control, while HeLa cells and human hepatocellular carcinoma cells (HUH7) were used as negative controls.
Total RNA was prepared using RNeasy mini kit (Qiagen, cat. no. 74104). Each RNA sample (250 ng) was reverse transcribed into cDNA using Maxima First Strand cDNA Synthesis kit (Thermo, cat. no. K1641). qPCR was performed on a StepOnePlus Real-Time PCR system (Thermo) using FAST SYBR green master mix (Thermo, cat. no. 4385616). Expression levels were normalized to the housekeeping gene glyceraldehyde 3-phosphate dehydrogenase (GAPDH).

NFκB [2] = assay: NFκB nuclear translocation (immunostaining) in IL-1β-stimulated hPSC-ECs, monoculture; type: cell-based, human; conditions: for NFκB nuclear translocation levels: 10 μM, IL-1β-stimulated hPSC-ECs, monoculture
Method: as §1
(§2) Cells were fixed with 4% paraformaldehyde (Nacalai Tesque, cat. no. 09154-14) and permeabilized by 0.5% Triton X-100 (Acros Organics, cat. no. 215680010) in PBS with Ca^2+ and MG^2+ at room temperature. Blocking was performed using PBS with 10% serum overnight at 4° C. Cells were incubated with the respective primary antibody diluted in 0.1% serum containing PBS for 1 hour and secondary antibodies in 0.1% serum containing PBS for another hour. Washes were performed twice using 0.1% serum containing PBS. DAPI (1 μg/ml, Thermo, cat. no. D3571) was used to stain the cell nucleus for 10 min.

IL-8 [3] = assay: IL-8 ELISA of conditioned media of IL-1β-stimulated hPSC-ECs, monoculture; type: cell-based, human; conditions: for IL-8 protein levels from conditioned media: 10 μM, 48 hours, IL-1β-stimulated hPSC-ECs, monoculture
Method: as §1
(§3) Conditioned EGM-2 media were collected, and concentration of human IL-8 was determined using the human IL-8 ELISA kit (Invitrogen, cat. no. KHC0081) according to manufacturer's instructions.

hPSC-HEPs = assay: LC-MS metabolic profile of nutraceuticals by hPSC-HEPs; type: in vitro ADME, human; conditions: 10 μM
Method: (§4) Hepatocytes were generated from hPSCs by a growth factor-based differentiation protocol described in our previous protocol. After 20 days of differentiation, the cells were harvested using a serial 2× TrypLE Express treatment and further dissociated into single cells by passing them through a 40 μm cell strainer. These single cells were then seeded at 2.5×10^5 cells per well in a Collagen I (50 μg/ml, Biolaboratories, Cat. No.: 354236)-coated dishes. Attachment and recovery were promoted by seeding them in step IV differentiation medium with Hepatocyte growth factor (R&D, Cat. No.: 294-HGN-005), Follistatin (R&D, Cat. No.: FS-288), Oncostatin (R&D, Cat. No.: 295-OM-010) and Y-27632 (Rock Inhibitor) to prevent anoikis in the freshly harvested hPSC-HEPs. Next day, media was changed to Williams E medium (Sigma, Cat. No.: W1878) without serum and cells were serum starved overnight prior to nutraceutical treatments. Nutraceuticals quercetin (Sigma, Cat. No.: Q4951) and genistein (Sigma, Cat. No.: G6649) were administered at a single dose of 10 μM. Hepatocytes in this work were derived from H9-ESCs. In hepatic characterization, primary human hepatocytes (PHH) and HUH7 cells were used as positive controls, while HeLa cells were used as negative control.
(§5) The metabolic potential of the hPSC-HEPs and primary rat hepatocytes (freshly isolated according to our previously established protocol) were tested by exposing them to nutraceuticals quercetin and genistein (10 μM) over different durations. Internal standard (Emodin, 10 ng/ml) was added to the conditioned media. The SPE column (Phenomenex, Strata C18-E, 55 μm, 70 Å) was conditioned by washing with 1 ml methanol and then 2 ml DI water. Conditioned media was added into the column and 1.5 mL 30% methanol was added to elute the impurity such as phenol red in the medium. 0.1% Formic acid methanol was added to the column to elute all the metabolites and internal standard out to a 15 mL tube. Liquid in the 15 mL tube was dried under N2 in a sample concentrator with 30° C. heater. […]

primary rat hepatocytes = assay: LC-MS metabolic profile of nutraceuticals by primary rat hepatocytes; type: in vitro ADME; conditions: 10 μM
Method: The metabolic potential of the hPSC-HEPs and primary rat hepatocytes (freshly isolated according to our previously established protocol) were tested by exposing them to nutraceuticals quercetin and genistein (10 μM) over different durations. Internal standard (Emodin, 10 ng/ml) was added to the conditioned media. The SPE column (Phenomenex, Strata C18-E, 55 μm, 70 Å) was conditioned by washing with 1 ml methanol and then 2 ml DI water. Conditioned media was added into the column and 1.5 mL 30% methanol was added to elute the impurity such as phenol red in the medium. 0.1% Formic acid methanol was added to the column to elute all the metabolites and internal standard out to a 15 mL tube. Liquid in the 15 mL tube was dried under N2 in a sample concentrator with 30° C. heater. After drying the sample, 100 μL of 0.1% formic acid methanol was added to the 15 mL tube and vortex for 30 s and transfer to another 1.5 mL tube. The samples were then centrifuged at 13,000 rpm for 10 min at 4° C. and 10 μl of the supernatant was injected into LC-MS. High performance liquid chromatography combined with electrospray ionization ion trap time-of-flight multistage mass spectrometry (HPLC-DAD-ESI-ITTOF-MSn) analyses were performed with a Shimadzu LCMS-IT-TOF instrument, which was composed of two LC-20AD pumps, an SIL-20AC autosampler, a CTO-20A column oven, a CBM-20A system controller, an ESI ion source, and an IT-TOF mass spectrometer (Shimadzu, Kyoto, Japan).

[4] = tested on: IL-1β-stimulated hPSC-HEPs; assay: Inflammatory marker gene expression (qPCR) in IL-1β-stimulated hPSC-HEPs; type: cell-based, human; conditions: 10 μM, 48 hours
Method: as §4
Total RNA was prepared using RNeasy mini kit (Qiagen, cat. no. 74104). […]

IL-8 [5] = assay: IL-8 ELISA of conditioned media of IL-1β-stimulated hPSC-HEPs; type: cell-based, human; conditions: 10 μM, 48 hours
Method: as §4, with “In hepatic characterization, primary human hepatocytes (PHH) and HUH7 cells were used as positive controls, while HeLa cells were used as negative control.” left out
as §3

NFκB [6] = assay: hPSC-HEP conditioned media on IL-1β-stimulated hPSC-ECs: NFκB nuclear translocation; type: cell-based, human; conditions: hPSC-HEP conditioned media (10 μM, 48 hour) on IL-1β-stimulated hPSC-ECs
Method: (§6) HPSC-HEPs (1.25×10^5 cells/cm^2) were cultured for 48 hour in 1:1 William's E medium+EGM-2 without serum containing 10 μM Quercetin or 10 μM Genistein. Conditioned media from hPSC-HEPs treated with quercetin or genistein were collected, and added to hPSC-ECs (that were serum starved overnight) along with 20 ng/ml of IL-13 for determination of NFκB nuclear colocalization (at 1 hour), gene expression profile of inflammatory markers (at 6 hour), and IL-8 protein levels (1 day) upon inflammation.
as §2

NFκB [7] = assay: Endothelial-hepatocyte co-culture: NFκB nuclear translocation in IL-1β-stimulated hPSC-ECs; type: cell-based, human; conditions: co-culture of hPSC-ECs with hPSC-HEPs, 10 μM for 48 hours prior to IL-1β stimulation
Method: (§7) H9-ESCs were used to generate the ECs and hepatocytes for co-culture experiments and assays with nutraceuticals. Both cell types were derived from an isogenic source of hPSC to ensure a robust endothelial-hepatic model without confounding phenotypic differences due to genetic variations. The IBIDI μ-slide 2×9 wells were used for creating the co-culture setup. Each minor well was first coated with Collagen I and then a total of 2.5×10^5 hPSC-ECs and hPSC-HEPs were seeded in individual wells in a 1:1 ratio within a major well to allow equivalent contribution of paracrine factors between the two cell types (FIG. 5A). After cell attachment, the media was changed to 1:1 William's E and EGM-2 without serum, to be commonly shared by hPSC-ECs and hPSC-HEPs in a major well. Upon overnight serum starvation, the co-cultures were pre-conditioned with 10 μM of Quercetin or Genistein for 48 hours prior to IL-1β stimulation.
as §2, with “Washes were performed twice using 0.1% serum containing PBS. DAPI (1 μg/ml, Thermo, cat. no. D3571) was used to stain the cell nucleus for 10 min.” left out

IL-8 [8] = assay: Endothelial-hepatocyte co-culture: IL-8 protein; type: cell-based, human; conditions: co-culture of hPSC-ECs with hPSC-HEPs, 10 μM for 48 hours prior to IL-1β stimulation
Method: as §7, §3

[9] = tested on: hPSC-HEP conditioned media treated on hPSC-ECs; assay: LC-MS metabolite profile in hPSC-HEP conditioned media treated on hPSC-ECs; type: in vitro ADME, human; conditions: conditioned media setting
Method: as §6, §5

[10] = tested on: co-culture of hPSC-ECs and hPSC-HEPs; assay: LC-MS metabolite profile in co-cultured media of hPSC-ECs and hPSC-HEPs; type: in vitro ADME, human
Method: as §7
The metabolic potential of the hPSC-HEPs and primary rat hepatocytes (freshly isolated according to our previously established protocol) were tested by exposing them to nutraceuticals quercetin and genistein (10 μM) over different durations. Internal standard (Emodin, 10 ng/ml) was added to the conditioned media. The SPE column (Phenomenex, Strata C18-E, 55 μm, 70 Å) was conditioned by washing with 1 ml methanol and then 2 ml DI water. […]

[11] = cited from earlier work
hPSC-ECs = assay: LC-MS metabolic profile of nutraceuticals by hPSC-ECs; type: in vitro ADME, human; conditions: hPSC-EC conditioned media
[12] = higher concentrations; cited from earlier work
[13] = BJ-ECs and IMR90-ECs, IL-1β stimulation

Row | Compound | gene expression of inflammatory markers versus IL-1β stimulated levels [1] | NFκB nuclear translocation levels (NFκB [2]) | IL-8 protein levels from conditioned media (IL-8 [3]) | inflammatory gene (marker) expression [4] | production of IL-8 protein from conditioned media (IL-8 [5]) | NFκB nuclear translocation (NFκB [6]) | NFκB nuclear translocation (colocalization) (NFκB [7]) | IL-8 protein levels / secretion (IL-8 [8]) | plasma concentrations [11] [nM] | further results
1 | O=c1c(-c2ccc(O)cc2)coc2cc(O)cc(O)c12 [genistein] | did not show substantial reduction | remained elevated | no significant reduction | significant reduction; also recorded: decreased most of the inflammatory marker expression | significantly suppressed | did not seem to inhibit | significant suppression; also recorded: significantly decreased | remarkably decreased; also recorded: significantly reduced | 30 to 16340 | levels of metabolites over time (hPSC-HEPs; hPSC-HEPs, LC-MS): increased over time; also recorded: increased with time; also recorded: giving rise to metabolites; level of parent nutraceutical over time (hPSC-HEPs; in the presence of hPSC-HEPs, LC-MS): gradually declined over time; level of parent nutraceutical over time (primary rat hepatocytes; freshly isolated primary rat hepatocytes, LC-MS): declined over time; formation of metabolites (primary rat hepatocytes; primary rat hepatocytes, LC-MS): giving rise to metabolites; metabolites detectable in medium [9]: but not in the conditioned media setting; metabolites detectable in medium ([10]; endothelial-hepatic co-culture, LC-MS): detectable levels of various metabolites
2 | IL-1β: human recombinant inflammatory cytokine, interleukin-1 beta, used to stimulate inflammation [reference compound] | – | – | – | – | – | – | – | – | – | expression of inflammatory genes [1, 13]: up-regulation; expression of inflammatory genes versus unstimulated ([1]; H9-derived hPSC-ECs, human recombinant IL-1β 20 ng/ml, 6 hours): significant up-regulation; NFκB nuclear translocation (NFκB [2]; [13]): increase; nuclear translocation of NFκB (NFκB [2]; H9-derived hPSC-ECs, IL-1β 20 ng/ml, 1 hour): evident; IL-8 production (IL-8 [3]; [13]): elevated; production of IL-8 from conditioned media versus unstimulated cells (IL-8 [3]; H9-derived hPSC-ECs, IL-1β-stimulated): significantly higher
3 | O=c1c(O)c(-c2ccc(O)c(O)c2)oc2cc(O)cc(O)c12 [quercetin] | did not show substantial reduction | remained elevated | no significant reduction | significant reduction; also recorded: decreased most of the inflammatory marker expression | significantly suppressed | did not seem to inhibit | significant suppression; also recorded: significantly decreased | remarkably decreased; also recorded: significantly reduced | 300 to 3500 | level of parent nutraceutical over time (hPSC-ECs): decrease over time; optimal duration of conversion into metabolites (most metabolites peaked) (hPSC-HEPs; human): 48 h; time of treatment by which substantial metabolites had emerged (primary rat hepatocytes; rat): ≤ 6 h; metabolites detectable in medium [10]: detectable levels of various metabolites; bioavailability in human plasma ([11]; human plasma): very low; safety and tolerability [12]: safe and well tolerated
